Source: patent US9850283B2, “Macrocyclic inhibitors of the PD-1/PD-L1 and CD80(B7-1)/PD-L1 protein/protein interactions” (BRISTOL-MYERS SQUIBB COMPANY, priority 2013, dated 2017)
Where two headings read alike, the source gives them in different places. Positions of bridges follow the written chain, without caps; N, C: chain ends. Non-standard residues stand in square brackets, D forms with d. Residues, ends and D or L forms follow the SMILES beside them. Pro(4,4-F2) = O=C(O)[C@@H]1CC(F)(F)CN1; Bta = N[C@@H](Cc1csc2ccccc12)C(=O)O; Hyp = O=C(O)[C@@H]1C[C@@H](O)CN1; NMeF = CN[C@@H](Cc1ccccc1)C(=O)O; NMeE = CN[C@@H](CCC(=O)O)C(=O)O; NMeNle = CCCC[C@H](NC)C(=O)O; NMeA = CN[C@@H](C)C(=O)O; Dab = NCC[C@H](N)C(=O)O; Dap = NC[C@H](N)C(=O)O; Sar = CNCC(=O)O

Tests used:
Human PD-L1/PD-1 = biological target: T1, Human PD-L1/PD-1 (Homo sapiens, UniProt Q9NZQ7); assay: HTRF PD-1-Ig/PD-L1-His binding assay (human PD-L1); conditions: cluster symbol; read-out: HTRF IC50 cluster
T1 construct: made in house; host or cells: HEK293T
T1 sequence (Q9NZQ7 with tags, fused parts or gaps): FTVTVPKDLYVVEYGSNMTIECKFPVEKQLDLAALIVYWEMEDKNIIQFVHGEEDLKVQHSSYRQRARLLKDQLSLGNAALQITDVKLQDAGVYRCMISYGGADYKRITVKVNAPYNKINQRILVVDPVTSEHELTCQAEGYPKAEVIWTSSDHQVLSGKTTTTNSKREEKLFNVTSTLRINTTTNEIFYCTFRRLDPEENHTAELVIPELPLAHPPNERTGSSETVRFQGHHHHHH
Procedure, shortened: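 Ig- and His-fused extracellular PD-1/PD-L1 binding in BSA/Tween-20 dPBS. HTRF with Eu anti-Ig (1 nM final) and APC anti-His (20 nM final).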

[1] = biological target: T2, LK35.2-hPD-L1 cells / PE-labeled PD-1-Ig (Homo sapiens, UniProt Q9NZQ7); assay: LK35.2-hPD-L1 cell binding high-content screening assay; format: cell-based
T2 construct: expressed in transfected cells; host or cells: LK35.2 mouse B cell line
T2 sequence (Q9NZQ7 19-290): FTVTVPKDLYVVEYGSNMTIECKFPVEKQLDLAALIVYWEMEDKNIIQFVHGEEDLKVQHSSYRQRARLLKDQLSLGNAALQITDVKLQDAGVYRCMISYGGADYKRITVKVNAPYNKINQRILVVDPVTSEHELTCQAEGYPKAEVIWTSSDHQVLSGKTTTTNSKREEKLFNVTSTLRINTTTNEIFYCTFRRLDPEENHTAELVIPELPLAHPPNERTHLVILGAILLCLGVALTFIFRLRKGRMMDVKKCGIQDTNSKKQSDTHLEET
Procedure, shortened: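 Using overnight-cultured LK35.2-hPD-L1 mouse B cells, compound was co-incubated with phycoerythrin-tagged human PD-1-Ig (final 1 nM) at 37 °C for one hour. Unbound label was removed by triple dPBS washing prior to high-content image acquisition and analysis.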

[2] = cell binding assay, cell line not given, cluster symbol, read-out: CBA IC50 cluster
[3] = cluster symbol, cell line of CBA not given (LK35.2-hPD-L1 or 293T-hPD-L1), read-out: CBA IC50 cluster

Row | Compound | IC50 (Human PD-L1/PD-1) [nM] | IC50 [1, 2] [nM] | IC50 ([1]; cell binding assay, cell line not given, value given instead of cluster, read-out: CBA IC50 value) [nM] | IC50 [1, 3] [nM]
1 | CCCC[C@H]1C(=O)N(C)[C@@H](CCCC)C(=O)N[C@@H](CCCNC(=N)N)C(=O)N[C@H](C(=O)NCC(N)=O)CSCC(=O)N[C@@H](Cc2ccc(O)cc2)C(=O)N(C)[C@@H](C)C(=O)N[C@@H](CCN)C(=O)N2CCC[C@H]2C(=O)N[C@@H](Cc2c[nH]cn2)C(=O)N[C@@H](CCC(N)=O)C(=O)N2C[C@H](O)C[C@H]2C(=O)N[C@@H](Cc2c[nH]c3ccccc23)C(=O)N[C@@H](CO)C(=O)N[C@@H](Cc2c[nH]c3ccccc23)C(=O)N1C [Example 5092] ({CH2CO}-Y[NMeA][Dab]PHQ[Hyp]WSW[NMeNle][NMeNle]RCG-NH2; thioether N-14) | 6.76 to 30.3 | 4.78 to 72.9 | – | –
2 | CCCC[C@H]1C(=O)N(C)[C@@H](CCCC)C(=O)N[C@@H](C)C(=O)N[C@H](C(=O)NCC(N)=O)CSCC(=O)N[C@@H](Cc2ccc(O)cc2)C(=O)N(C)[C@@H](C)C(=O)N[C@@H](CCN)C(=O)N2CCC[C@H]2C(=O)N[C@@H](Cc2c[nH]cn2)C(=O)N[C@@H](CCC(=O)O)C(=O)N2C[C@H](O)C[C@H]2C(=O)N[C@@H](Cc2c[nH]c3ccccc23)C(=O)N[C@@H](CO)C(=O)N[C@@H](Cc2c[nH]c3ccccc23)C(=O)N1C [Example 5087] ({CH2CO}-Y[NMeA][Dab]PHE[Hyp]WSW[NMeNle][NMeNle]ACG-NH2; thioether N-14) | 0.385 to 6.74 | 4.78 to 72.9 | – | –
3 | CCCC[C@H]1C(=O)N(C)[C@@H](CCCC)C(=O)N[C@@H](CCCNC(=N)N)C(=O)N[C@H](C(=O)NCC(N)=O)CSCC(=O)N[C@@H](Cc2ccc(O)cc2)C(=O)N(C)[C@@H](C)C(=O)N[C@@H](CCN)C(=O)N2CCC[C@H]2C(=O)N[C@@H](Cc2c[nH]cn2)C(=O)N[C@@H](CCC(=O)O)C(=O)N2C[C@H](O)C[C@H]2C(=O)N[C@@H](Cc2c[nH]c3ccccc23)C(=O)N[C@@H](CCN)C(=O)N[C@@H](Cc2c[nH]c3ccccc23)C(=O)N1C [Example 5086] ({CH2CO}-Y[NMeA][Dab]PHE[Hyp]W[Dab]W[NMeNle][NMeNle]RCG-NH2; thioether N-14) | 0.385 to 6.74 | 4.78 to 72.9 | – | –
4 | CCCC[C@H]1C(=O)N(C)[C@@H](CCCC)C(=O)N[C@@H](CCCNC(=N)N)C(=O)N[C@H](C(=O)NCC(N)=O)CSCC(=O)N[C@@H](Cc2ccccc2)C(=O)N(C)[C@@H](C)C(=O)N[C@@H](CC(N)=O)C(=O)N2CCC[C@H]2C(=O)N[C@@H](Cc2cnc[nH]2)C(=O)N[C@@H](CCCNC(=N)N)C(=O)N(C)CC(=O)N[C@@H](Cc2c[nH]c3ccccc23)C(=O)N[C@@H](CO)C(=O)N[C@@H](Cc2c[nH]c3ccccc23)C(=O)N1C [Example 6003] ({CH2CO}-F[NMeA]NPHR[Sar]WSW[NMeNle][NMeNle]RCG-NH2; thioether N-14) | 6.76 to 30.3 | – | 72.9 | –
5 | CCCC[C@H]1C(=O)N(C)[C@@H](CCCC)C(=O)N[C@@H](CCCNC(=N)N)C(=O)N[C@H](C(=O)NCC(N)=O)CSCC(=O)N[C@@H](Cc2ccccc2)C(=O)N(C)[C@@H](C)C(=O)N[C@@H](CC(N)=O)C(=O)N2CCC[C@H]2C(=O)N[C@@H](Cc2cnc[nH]2)C(=O)N[C@@H](CC(C)C)C(=O)N2CC(F)(F)C[C@H]2C(=O)N[C@@H](Cc2c[nH]c3ccccc23)C(=O)N[C@@H](CO)C(=O)N[C@@H](Cc2c[nH]c3ccccc23)C(=O)N1C [Example 1197] ({CH2CO}-F[NMeA]NPHL[Pro(4,4-F2)]WSW[NMeNle][NMeNle]RCG-NH2; thioether N-14) | 6.76 to 30.3 | – | – | 4.78 to 72.9
6 | CCCC[C@H]1C(=O)N(C)[C@@H](CCCC)C(=O)N[C@@H](CCCNC(=N)N)C(=O)N[C@H](C(=O)NCC(N)=O)CSCC(=O)N[C@@H](Cc2ccc(O)cc2)C(=O)N(C)[C@@H](C)C(=O)N[C@@H](CC(N)=O)C(=O)N2CCC[C@H]2C(=O)N[C@@H](CN)C(=O)N[C@@H](CC(C)C)C(=O)N2C[C@H](O)C[C@H]2C(=O)N[C@@H](Cc2c[nH]c3ccccc23)C(=O)N[C@@H](CC(N)=O)C(=O)N[C@@H](Cc2c[nH]c3ccccc23)C(=O)N1C [Example 6033] ({CH2CO}-Y[NMeA]NP[Dap]L[Hyp]WNW[NMeNle][NMeNle]RCG-NH2; thioether N-14) | 0.385 to 6.74 | 0.158 to 4.71 | – | –
7 | CCCC[C@H]1C(=O)N(C)CC(=O)N[C@@H](CC(=O)O)C(=O)N[C@@H](C(C)C)C(=O)N(C)[C@@H](Cc2ccccc2)C(=O)N[C@@H](Cc2ccc(O)cc2)C(=O)N(C)[C@@H](CCC(=O)O)C(=O)N[C@@H](Cc2csc3ccccc23)C(=O)N[C@@H](Cc2ccc(O)cc2)C(=O)N[C@@H](CC(C)C)C(=O)N[C@H](C(=O)NCC(N)=O)CSCC(=O)N[C@@H](Cc2ccccc2)C(=O)N(C)[C@@H](Cc2ccccc2)C(=O)N1C [Example 3073] ({CH2CO}-F[NMeF][NMeNle][Sar]DV[NMeF]Y[NMeE][Bta]YLCG-NH2; thioether N-13) | 0.385 to 6.74 | – | – | 4.78 to 72.9
